# Measured values as given in ChEMBL document CHEMBL3259686, “Biologically active dichapetalins from Dichapetalum gelonioides” (J Nat Prod, 2014).
# pEC50, pIC50: −log10 of the molar value. Activity calls are given as the source filed them. No cut-off for these calls is given here.
# What was measured:
# Spodoptera exigua = assay: Antifeedant activity against beet armyworm after 24 hrs; type: functional, organism-based
# [1] = test system: Colletotrichum gloeosporioides; assay: Antifungal activity against Colletotrichum gloeosporioides at 50 ug/disc after 2 days by disk diffusion method; type: functional; details: for zone of inhibition at 50 µg/disc: 48 h, read-out: DIZ
# [2] = Antifungal activity against Cylindrocarpon musae at 50 ug/disc after 2 days by disk diffusion method; type: functional
# [3] = test system: Fusarium oxysporum f. sp. niveum; assay: Antifungal activity against Fusarium oxysporum f. sp. niveum at 50 ug/disc after 2 days by disk diffusion method; type: functional; details: for zone of inhibition at 50 µg/disc: 48 h, read-out: DIZ
# Rhizoctonia solani = assay: Antifungal activity against Rhizoctonia solani at 50 ug/disc after 2 days by disk diffusion method; type: functional; details: for zone of inhibition at 50 µg/disc: 48 h, read-out: DIZ
# Panagrellus redivivus = assay: Nematicidal activity against Panagrellus redivivus assessed as mortality at 100 ug/ml after 72 hrs by light binocular microscopic analysis (reference value: 7.1 +/- 0.9%); type: functional
# HL-60 = assay: Cytotoxicity against human HL60 cells after 48 hrs by MTS assay; type: functional, cell-based; details: HL-60, 48 h
# SMMC-7721 = assay: Cytotoxicity against human SMMC7721 cells after 48 hrs by MTS assay; type: functional, cell-based; details: SMMC-7721, 48 h
# A549 = assay: Cytotoxicity against human A549 cells after 48 hrs by MTS assay; type: functional, cell-based; details: A549, 48 h
# MCF7 = assay: Cytotoxicity against human MCF7 cells after 48 hrs by MTS assay; type: functional, cell-based; details: MCF7, 48 h
# SW480 = assay: Cytotoxicity against human SW480 cells after 48 hrs by MTS assay; type: functional, cell-based; details: SW480, 48 h
# RAW264.7 [4] = assay: Inhibition of LPS-induced nitric oxide production in mouse RAW264.7 cells by Griess method; type: functional, cell-based
# RAW264.7 [5] = assay: Cytotoxicity against mouse RAW264.7 cells by MTT assay; type: cell-based
# RAW264.7 [6] = assay: Ratio of MG132 IC50 to compound IC50 for LPS-induced nitric oxide production in mouse RAW264.7 cells; type: functional
# HCT-116 = assay: Cytotoxicity against human HCT116 cells; type: functional, cell-based
# [7] = Cytotoxicity against human WM266.4 cells; type: functional, cell-based; details: WM 266-4
molecule,measurement,setting,value
CC(=O)O[C@@]1(C)CO[C@@]2(C[C@@H]([C@@H]3CC[C@]45C[C@]34C=C[C@@H]3[C@@]4(C)CC=C6C[C@@H](c7ccccc7)OC[C@]6(C)[C@@H]4CC(=O)[C@]35C)C(=O)O2)C1,EC50,Spodoptera exigua,11.7 microg/cm2
same,zone of inhibition at 50 µg/disc,[1],10.1 mm
same,inhibition zone (IZ),[2],13.8 mm
same,zone of inhibition at 50 µg/disc,[3],11.5 mm
same,diameter of the inhibition zone (DIZ),Rhizoctonia solani,inactive
NYSTATIN,inhibition zone (IZ),[1],14.5 mm
same,inhibition zone (IZ),[2],16.6 mm
same,inhibition zone (IZ),[3],12 mm
same,inhibition zone (IZ),Rhizoctonia solani,14.7 mm
COc1ccc([C@@H]2CC3=CC[C@@]4(C)[C@@H](CC(=O)[C@]5(C)[C@@H]4C=C[C@]46C[C@@]45CC[C@H]6[C@@H]4C[C@]5(C[C@@](C)(OC(=O)C[C@@H](O)c6ccc(O)cc6)CO5)OC4=O)[C@@]3(C)CO2)cc1,EC50,Spodoptera exigua,> 100 microg/cm2
same,mortality at 100 µg/mL,Panagrellus redivivus,4.8%
C[C@]1(OC(=O)C[C@@H](O)c2ccc(O)cc2)CO[C@@]2(C1)OC(=O)[C@H]([C@@H]1CC[C@]34C[C@]13C=C[C@@H]1[C@@]3(C)CC=C5C[C@@H](c6ccccc6)OC[C@]5(C)[C@@H]3CC(=O)[C@]14C)[C@H]2O,pIC50,HL-60,5.29
same,pIC50,SMMC-7721,4.73
same,pIC50,A549,5.52
same,pIC50,MCF7,5.46
same,pIC50,SW480,4.68
COC(=O)[C@@H](Cc1cc(C)co1)[C@@H]1CC[C@]23C[C@]12C=C[C@@H]1[C@@]2(C)CC=C4C[C@@H](c5ccccc5)OC[C@]4(C)[C@@H]2CC(=O)[C@]13C,pIC50,HL-60,4.99
same,pIC50,SMMC-7721,4.61
same,pIC50,A549,4.75
same,pIC50,MCF7,4.68
same,pIC50,SW480,< 4.40
same,EC50,Spodoptera exigua,> 100 microg/cm2
same,mortality at 100 µg/mL,Panagrellus redivivus,2.5%
COc1ccc([C@@H]2CC3=CC[C@]4(C)[C@H]5C=C[C@]67C[C@]6(CC[C@H]7[C@@H]6C[C@H](/C=C(\C)CO)OC6=O)[C@]5(C)[C@H](O)C[C@H]4[C@@]3(C)CO2)cc1 [DICHAPETALIN K],mortality at 100 µg/mL,Panagrellus redivivus,4.4%
C/C(=C\[C@H]1C[C@@H]([C@@H]2CC=C3[C@]4(C)[C@H](O)C[C@@H]5[C@](C)(CC=C6C[C@@H](c7ccccc7)OC[C@@]65C)[C@H]4CC[C@]32C)C(=O)O1)CO,EC50,Spodoptera exigua,3.4 microg/cm2
same,mortality at 100 µg/mL,Panagrellus redivivus,3%
C[C@]1(OC(=O)C[C@@H](O)c2ccc(O)cc2)CO[C@@]2(C[C@@H]([C@@H]3CC[C@]45C[C@]34C=C[C@@H]3[C@@]4(C)CC=C6C[C@@H](c7ccccc7)OC[C@]6(C)[C@@H]4CC(=O)[C@]35C)C(=O)O2)C1,pIC50,HL-60,< 4.40
same,pIC50,SMMC-7721,< 4.40
same,pIC50,A549,4.57
same,pIC50,MCF7,5.09
same,pIC50,SW480,< 4.40
same,EC50,Spodoptera exigua,78.7 microg/cm2
same,mortality at 100 µg/mL,Panagrellus redivivus,20.5%
same,zone of inhibition at 50 µg/disc,[1],12.4 mm
same,inhibition zone (IZ),[2],12.8 mm
same,zone of inhibition at 50 µg/disc,[3],12.8 mm
same,zone of inhibition at 50 µg/disc,Rhizoctonia solani,13.8 mm
C[C@]12CC=C3C[C@@H](c4ccccc4)OC[C@]3(C)[C@@H]1C[C@@H](O)[C@]1(C)[C@@H]2C=C[C@]23C[C@]12CC[C@H]3[C@@H]1C[C@@]2(OC[C@](C)(OC(=O)CCc3ccc(O)cc3)[C@H]2O)OC1=O,EC50,Spodoptera exigua,9.8 microg/cm2
same,mortality at 100 µg/mL,Panagrellus redivivus,61.8%
COc1ccc([C@@H]2CC3=CC[C@@]4(C)[C@@H](CC(=O)[C@]5(C)[C@@H]4C=C[C@]46C[C@@]45CC[C@H]6[C@@H]4C[C@@]5(OC[C@](C)(OC(=O)CCc6ccc(O)cc6)[C@H]5O)OC4=O)[C@@]3(C)CO2)cc1,pIC50,HL-60,< 4.40
same,pIC50,SMMC-7721,< 4.40
same,pIC50,A549,< 4.40
same,pIC50,MCF7,< 4.40
same,pIC50,SW480,< 4.40
same,EC50,Spodoptera exigua,28.9 microg/cm2
same,mortality at 100 µg/mL,Panagrellus redivivus,7.8%
C/C(=C\[C@H]1C[C@@H]([C@@H]2CC[C@]34C[C@]23C=C[C@@H]2[C@@]3(C)CC=C5C[C@@H](c6ccccc6)OC[C@]5(C)[C@@H]3C[C@@H](O)[C@]24C)C(=O)O1)CO [DICHAPETALIN A],EC50,Spodoptera exigua,3.1 microg/cm2
same,mortality at 100 µg/mL,Panagrellus redivivus,15.3%
same,diameter of the inhibition zone (DIZ),[1],inactive
same,inhibition zone (IZ),[2],12.8 mm
same,diameter of the inhibition zone (DIZ),[3],inactive
same,zone of inhibition at 50 µg/disc,Rhizoctonia solani,10.5 mm
same,pIC50,RAW264.7 [4],7.70
same,Activity,RAW264.7 [5],Non-toxic
same,Ratio IC50,RAW264.7 [6],20
COC(=O)[C@@H](C[C@@]1(OC)C[C@](C)(O)CO1)[C@@H]1CC[C@]23C[C@]12C=C[C@@H]1[C@@]2(C)CC=C4C[C@@H](c5ccccc5)OC[C@]4(C)[C@@H]2CC(=O)[C@]13C,EC50,Spodoptera exigua,3.1 microg/cm2
CC(=O)O[C@@]1(C)CO[C@@]2(C1)OC(=O)[C@H]([C@@H]1CC[C@]34C[C@]13C=C[C@@H]1[C@@]3(C)CC=C5C[C@@H](c6ccccc6)OC[C@]5(C)[C@@H]3[C@@H](O)C(=O)[C@]14C)[C@H]2O,pEC50,HCT-116,8.00
same,pEC50,[7],7.11
C[C@]1(O)CO[C@@]2(C1)OC(=O)[C@H]([C@@H]1CC[C@]34C[C@]13C=C[C@@H]1[C@@]3(C)CC=C5C[C@@H](c6ccccc6)OC[C@]5(C)[C@@H]3CC(=O)[C@]14C)[C@H]2O,mortality at 100 µg/mL,Panagrellus redivivus,46.3%
